# Laboratory results reported in ChEMBL document CHEMBL2331140, “A novel series of tacrine-selegiline hybrids with cholinesterase and monoamine oxidase inhibition activities for the treatment of Alzheimer's disease” (Eur J Med Chem, 2013).
# Legend:
# Acetylcholinesterase = Acetylcholinesterase (Electrophorus electricus, UniProt O42275)
# Description: Inhibition of electric eel AChE using acetylthiocholine chloride as substrate after 15 mins by Ellman's method
# [1] = Selectivity index, ratio of IC50 for recombinant human MAO-A to IC50 for recombinant human MAO-B
# Cholinesterase = Cholinesterase (Equus caballus, UniProt P81908)
# Description: Inhibition of horse serum BChE using butyrylthiocholine chloride as substrate after 15 mins by Ellman's method
# [2] = biological target: T1, Amine oxidase [flavin-containing] B (Homo sapiens, UniProt P27338)
# T1 sequence (P27338 whole entry): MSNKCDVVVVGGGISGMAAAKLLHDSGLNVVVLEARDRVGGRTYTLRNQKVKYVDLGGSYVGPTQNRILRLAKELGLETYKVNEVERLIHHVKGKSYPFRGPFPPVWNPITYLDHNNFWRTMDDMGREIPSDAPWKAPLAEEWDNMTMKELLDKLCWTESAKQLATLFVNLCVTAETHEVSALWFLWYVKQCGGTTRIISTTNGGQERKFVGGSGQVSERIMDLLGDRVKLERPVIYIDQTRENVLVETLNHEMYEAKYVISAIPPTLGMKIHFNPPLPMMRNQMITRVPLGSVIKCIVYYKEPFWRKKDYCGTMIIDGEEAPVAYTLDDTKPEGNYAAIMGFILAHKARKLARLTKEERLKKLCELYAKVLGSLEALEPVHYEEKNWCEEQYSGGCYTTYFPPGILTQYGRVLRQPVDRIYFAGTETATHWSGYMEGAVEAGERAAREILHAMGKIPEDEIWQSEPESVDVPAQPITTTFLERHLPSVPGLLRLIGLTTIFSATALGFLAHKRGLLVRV
# Description: Inhibition of recombinant human MAO-B using p-benzylamine substrate preincubated for 15 mins before substrate addition measured after 20 mins by fluorescence assay
# [3] = biological target: T2, Amine oxidase [flavin-containing] A (Homo sapiens, UniProt P21397)
# T2 sequence (P21397 whole entry): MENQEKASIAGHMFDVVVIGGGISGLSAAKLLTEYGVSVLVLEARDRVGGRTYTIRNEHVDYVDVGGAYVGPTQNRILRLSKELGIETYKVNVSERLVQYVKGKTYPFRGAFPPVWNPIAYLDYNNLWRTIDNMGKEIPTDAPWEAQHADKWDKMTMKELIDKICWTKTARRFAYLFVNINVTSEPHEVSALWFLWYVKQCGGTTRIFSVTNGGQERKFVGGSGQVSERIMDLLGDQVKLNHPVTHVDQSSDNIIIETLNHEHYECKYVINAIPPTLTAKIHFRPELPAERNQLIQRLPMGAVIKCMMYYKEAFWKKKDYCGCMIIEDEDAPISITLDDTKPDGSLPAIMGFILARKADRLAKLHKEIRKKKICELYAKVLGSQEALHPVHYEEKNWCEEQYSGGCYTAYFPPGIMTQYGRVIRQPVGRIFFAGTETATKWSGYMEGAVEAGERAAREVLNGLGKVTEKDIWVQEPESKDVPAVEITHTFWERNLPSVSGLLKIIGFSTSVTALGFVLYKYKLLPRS
# Description: Inhibition of recombinant human MAO-A using p-tyramine substrate preincubated for 15 mins before substrate addition measured after 20 mins by fluorescence assay
# [4] = biological target: T1, Amine oxidase [flavin-containing] B; settings: 20 min, read-out: INH
# [5] = biological target: T1, Amine oxidase [flavin-containing] B; settings: read-out: INH
# Sequence of Cholinesterase (P81908 whole entry): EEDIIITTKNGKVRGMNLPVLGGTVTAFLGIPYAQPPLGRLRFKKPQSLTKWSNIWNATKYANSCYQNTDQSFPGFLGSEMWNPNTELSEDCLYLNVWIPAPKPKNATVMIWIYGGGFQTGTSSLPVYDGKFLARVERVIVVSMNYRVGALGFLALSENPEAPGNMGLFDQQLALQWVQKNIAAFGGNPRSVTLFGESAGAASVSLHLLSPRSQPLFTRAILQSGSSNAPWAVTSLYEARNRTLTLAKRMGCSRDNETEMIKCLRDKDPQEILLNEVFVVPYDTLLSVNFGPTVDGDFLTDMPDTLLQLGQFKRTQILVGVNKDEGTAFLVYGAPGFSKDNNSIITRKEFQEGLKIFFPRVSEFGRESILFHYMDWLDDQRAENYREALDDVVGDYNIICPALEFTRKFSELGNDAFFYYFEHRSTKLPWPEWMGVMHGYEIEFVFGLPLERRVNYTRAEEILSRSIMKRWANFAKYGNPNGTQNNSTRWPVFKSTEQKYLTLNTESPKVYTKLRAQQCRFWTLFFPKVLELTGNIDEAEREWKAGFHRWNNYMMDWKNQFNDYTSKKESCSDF
# Sequence of Acetylcholinesterase (O42275 whole entry): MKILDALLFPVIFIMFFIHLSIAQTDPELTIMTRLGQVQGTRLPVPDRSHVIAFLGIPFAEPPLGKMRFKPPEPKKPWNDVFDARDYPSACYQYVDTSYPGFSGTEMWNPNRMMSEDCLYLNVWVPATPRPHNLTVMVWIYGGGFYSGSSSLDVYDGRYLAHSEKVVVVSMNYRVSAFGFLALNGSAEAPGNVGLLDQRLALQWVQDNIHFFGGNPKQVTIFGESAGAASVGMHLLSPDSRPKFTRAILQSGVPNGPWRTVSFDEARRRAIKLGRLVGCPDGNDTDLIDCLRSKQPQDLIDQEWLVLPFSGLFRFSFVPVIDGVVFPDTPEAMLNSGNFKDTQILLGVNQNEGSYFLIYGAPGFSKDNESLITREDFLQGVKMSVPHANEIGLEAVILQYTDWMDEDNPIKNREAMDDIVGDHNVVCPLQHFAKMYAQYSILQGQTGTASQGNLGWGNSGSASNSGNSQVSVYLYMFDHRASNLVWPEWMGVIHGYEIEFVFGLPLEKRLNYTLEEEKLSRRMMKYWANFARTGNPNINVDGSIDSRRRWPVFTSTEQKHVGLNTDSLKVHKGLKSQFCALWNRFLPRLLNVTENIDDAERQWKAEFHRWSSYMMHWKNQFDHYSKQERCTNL
SMILES,IC50 (Acetylcholinesterase) [µM],Ratio IC50 [1],IC50 (Cholinesterase) [µM],IC50 [2] [µM],IC50 [3] [µM],inhibition at 0.2 µM [4] [%],inhibition at 0.2 µM [5] [%]
C#CCN(CCCCCCNc1c2c(nc3ccccc13)CCCC2)[C@H](C)Cc1ccc(OC)cc1,0.456,1.9,0.0287,18.1,33.8,,
C#CCN(C)[C@H](C)Cc1ccc(OCCCCCCCCCCNc2c3c(nc4ccccc24)CCCC3)cc1,0.0232,0.9,0.00203,0.346,0.313,,
C#CCN(C)[C@H](C)Cc1ccc(OCCCCNc2c3c(nc4ccccc24)CCCC3)cc1,0.053,0.8,0.0396,8.55,7,,
C#CCN(C)[C@H](C)Cc1ccc(OCCCCCCCCNc2c3c(nc4cc(Cl)ccc24)CCCC3)cc1,0.0554,1.5,0.0176,0.129,0.193,,
C#CCN(C)[C@H](C)Cc1ccc(OCCCCCNc2c3c(nc4ccccc24)CCCC3)cc1,0.0776,0.5,0.0235,2.4,1.26,,
C#CCN(C)[C@H](C)Cc1ccc(OCCCCCCCCNc2c3c(nc4ccccc24)CCCC3)cc1,0.147,3.5,0.0355,0.167,0.591,,
C#CCN(C)[C@H](C)Cc1ccc(OCCNc2c3c(nc4ccccc24)CCCC3)cc1,0.0831,7,0.0506,0.693,4.86,,
C#CCN(C)[C@H](C)Cc1ccc(OCCCCCCCCCNc2c3c(nc4ccccc24)CCCC3)cc1,0.0226,,0.00937,,,70.8,81.6
C#CCN(C)[C@H](C)Cc1ccc(OCCCCCNc2c3c(nc4cc(Cl)ccc24)CCCC3)cc1,0.082,0.5,0.0186,6.21,2.86,,
C#CCN(C)[C@H](C)Cc1ccc(OCCCNc2c3c(nc4ccccc24)CCCC3)cc1,0.0361,9.7,0.0414,4.46,43.4,,
C#CCN(C)[C@H](C)Cc1ccc(OCCCCCCNc2c3c(nc4cc(Cl)ccc24)CCCC3)cc1,0.0793,1,0.0188,0.519,0.521,,
C#CCN(C)[C@H](C)Cc1ccc(OCCCNc2c3c(nc4cc(Cl)ccc24)CCCC3)cc1,0.0142,0.8,0.066,11.1,9.05,,
C#CCN(C)[C@H](C)Cc1ccc(OCCCCCCNc2c3c(nc4ccccc24)CCCC3)cc1,0.138,1.9,0.0161,0.209,0.398,,
